The test system of one test is lung cancer (A549) cells. Kind of test: A549 lung cancer cells, phase contrast microscopy, cell cycle analysis and apoptosis by flow cytometry. The format is cell-based, human. The conditions noted are these: 48h, Flowjo. The protocol: (§1) To study the effect of the drug conjugate on cancer cells, Lung (A549), Leukemia (K562), & Prostate (PC-3) cell lines were procured from NCCS, Pune. On receipt, the cell lines were sub cultured and sufficient numbers of vials were stored in […]. deep freezer. To study the effect of curcumin on angiogenesis, primary endothelial cells isolated from sheep was used. The effects on primary human fibroblast cells were also studied. Each cell line was maintained in their respective recommended media. A549, PC3 and fibroblast cells were maintained in DMEM media with 10% FBS. K562 cells were maintained in IMDM media supplemented with 10% FBS and endothelial cells in MCDB media with 10% FBS, L-ascorbic acid, VEGF and L-Glutamine.
(§2) The effect of curcumin was analyzed on cell apoptosis and cycle arrest. Different concentrations of the alb-cur conjugate were added into the cultures. The concentrations employed were 250 μM, 500 μM, and 1000 μM which were achieved by adding stock prepared by dissolving lyophilized curcumin-albumin conjugate.
(§3) The efficacy of the loaded drug was analyzed using solid tumor cell lines of prostate cancer (PC-3) [FIGS. 4 & 5] lung cancer (A549) [FIGS. 6 & 7B] and suspension cell line of leukemia (K562) [FIGS. 7A & 8]. The toxicity of the conjugated albumin-curcumin complex was assed by Live/Dead assay using Annexin V in primary fibroblasts. […]

Test [1] concerns prostate cancer (PC-3) cells. Put plainly: PC-3 cells, phase contrast microscopy and Live/Dead (Annexin V) assay. As to conditions: 24h, phase contrast microscopy, curcumin in DMSO. It counts as cell-based, human. The protocol:
as §1, §2, §3

Consider `O=c1[nH]cc(F)c(=O)[nH]1` [Example 5-FU], for which the “cell cycle distribution of A549 cells (positive control)” value in the test on lung cancer (A549) cells is recorded as “slight increase in the population of cells in the S phase”. On to `COc1cc(/C=C/C(=O)CC(=O)/C=C/c2ccc(O)c(OC)c2)ccc1O` [cur/DMSO, curcumin], for which the “morphology of PC-3 cells” value in test [1] is on record as “normal morphological features”.

The record behind these values is patent US10849983B2, “Development of soluble albuminated curcumin for application in cancer therapy” (Sree Chitra Tirunal Institute for Medical Sciences and …, priority 2013, dated 2020).
